Reference: ChEMBL document CHEMBL1201862, “PubChem BioAssay data set” (2004)
Active and inactive are the calls of the source.

Legend:
Cytochrome P450 3A4 = Cytochrome P450 3A4 (Homo sapiens, UniProt P08684);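 note: CYP3A4 tested as one member of a cytochrome P450 panel screen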
Cytochrome P450 2D6 = Cytochrome P450 2D6 (Homo sapiens, UniProt P10635);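 note: CYP2D6 member of a cytochrome P450 panel assay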
[1] = target: T1, Heat shock factor protein 1 (Mus musculus, UniProt P38532); assay: enhancement of HSF1-driven luciferase signal – cell-based, NIH3T3, luminescence, dose retest, confirmation (AID 435004); assay type: functional;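 note: stress induced by proteasome inhibitor MG132 added 30 min after compound; luciferase reporter driven by HSF1 response element in NIH3T3 cells; actives raise luminescence as potentiators of the MG132 stress response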
T1 sequence (P38532 whole entry): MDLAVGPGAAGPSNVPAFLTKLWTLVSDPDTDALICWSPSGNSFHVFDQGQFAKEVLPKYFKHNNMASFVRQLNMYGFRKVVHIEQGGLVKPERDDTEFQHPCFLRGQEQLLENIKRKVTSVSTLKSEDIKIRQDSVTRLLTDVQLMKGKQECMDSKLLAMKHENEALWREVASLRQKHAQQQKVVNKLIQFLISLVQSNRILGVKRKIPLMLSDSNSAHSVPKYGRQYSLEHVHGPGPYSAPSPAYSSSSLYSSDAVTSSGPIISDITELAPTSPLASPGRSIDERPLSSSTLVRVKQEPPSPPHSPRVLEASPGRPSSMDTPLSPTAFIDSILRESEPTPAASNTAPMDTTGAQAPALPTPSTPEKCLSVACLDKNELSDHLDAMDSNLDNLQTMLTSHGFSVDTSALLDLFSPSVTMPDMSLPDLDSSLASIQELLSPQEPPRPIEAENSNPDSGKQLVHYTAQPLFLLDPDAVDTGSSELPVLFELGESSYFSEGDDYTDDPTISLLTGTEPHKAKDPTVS

Cytochrome P450 2C9 = Cytochrome P450 2C9 (Homo sapiens, UniProt P11712)
Cytochrome P450 2C9, sequence (P11712 whole entry): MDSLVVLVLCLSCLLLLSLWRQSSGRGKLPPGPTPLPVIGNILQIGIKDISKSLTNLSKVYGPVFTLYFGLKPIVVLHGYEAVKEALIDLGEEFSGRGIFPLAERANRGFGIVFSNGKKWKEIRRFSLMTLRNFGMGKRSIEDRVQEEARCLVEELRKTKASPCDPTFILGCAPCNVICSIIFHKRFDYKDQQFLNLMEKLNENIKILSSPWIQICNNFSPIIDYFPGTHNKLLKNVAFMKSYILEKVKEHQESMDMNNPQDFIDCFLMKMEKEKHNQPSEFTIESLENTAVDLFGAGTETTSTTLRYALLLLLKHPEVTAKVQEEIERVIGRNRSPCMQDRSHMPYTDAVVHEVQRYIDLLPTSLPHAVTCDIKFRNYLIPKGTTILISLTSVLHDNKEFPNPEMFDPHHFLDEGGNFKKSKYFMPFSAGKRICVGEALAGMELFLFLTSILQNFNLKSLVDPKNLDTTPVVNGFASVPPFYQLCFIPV

[2] = target: T2, Replicative DNA helicase DnaB (Mycobacterium tuberculosis, UniProt P9WMR3); assay: DnaB intein splicing inhibitors, dose response, biochemical, cell-free fluorescence (AID 449749); assay type: functional
T2 sequence (P9WMR3 whole entry): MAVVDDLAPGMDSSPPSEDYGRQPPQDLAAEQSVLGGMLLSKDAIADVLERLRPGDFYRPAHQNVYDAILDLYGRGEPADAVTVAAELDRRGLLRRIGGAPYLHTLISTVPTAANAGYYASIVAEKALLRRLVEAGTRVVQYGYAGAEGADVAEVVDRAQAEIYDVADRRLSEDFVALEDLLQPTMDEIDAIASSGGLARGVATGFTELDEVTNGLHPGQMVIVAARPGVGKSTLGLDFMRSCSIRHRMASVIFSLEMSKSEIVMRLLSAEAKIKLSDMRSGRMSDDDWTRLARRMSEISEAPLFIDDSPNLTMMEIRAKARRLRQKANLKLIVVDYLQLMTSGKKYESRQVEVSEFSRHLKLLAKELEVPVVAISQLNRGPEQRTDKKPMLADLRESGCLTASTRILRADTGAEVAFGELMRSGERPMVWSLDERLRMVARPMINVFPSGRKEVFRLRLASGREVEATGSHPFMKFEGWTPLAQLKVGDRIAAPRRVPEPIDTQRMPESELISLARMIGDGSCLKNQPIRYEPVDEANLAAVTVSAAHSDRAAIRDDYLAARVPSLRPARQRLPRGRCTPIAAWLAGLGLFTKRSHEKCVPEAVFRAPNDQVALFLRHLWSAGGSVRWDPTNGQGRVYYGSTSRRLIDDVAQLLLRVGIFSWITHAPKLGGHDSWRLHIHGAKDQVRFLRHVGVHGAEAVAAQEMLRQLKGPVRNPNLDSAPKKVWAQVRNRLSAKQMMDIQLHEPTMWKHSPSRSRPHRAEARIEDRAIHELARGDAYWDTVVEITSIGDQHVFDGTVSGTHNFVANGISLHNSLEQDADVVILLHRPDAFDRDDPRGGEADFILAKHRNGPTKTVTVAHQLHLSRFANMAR

Protein RecA = target: T3, Protein RecA (Mycobacterium tuberculosis, UniProt P9WHJ3); assay: Fluorescence Cell-Free Homogeneous Dose Retest to Identify Inhibitors of RecA-Intein Splicing Activity. [Related pubchem assays (depositor defined):AID2097, AID2223, AID489010, AID492950]; assay type: functional
T3 sequence (P9WHJ3 whole entry): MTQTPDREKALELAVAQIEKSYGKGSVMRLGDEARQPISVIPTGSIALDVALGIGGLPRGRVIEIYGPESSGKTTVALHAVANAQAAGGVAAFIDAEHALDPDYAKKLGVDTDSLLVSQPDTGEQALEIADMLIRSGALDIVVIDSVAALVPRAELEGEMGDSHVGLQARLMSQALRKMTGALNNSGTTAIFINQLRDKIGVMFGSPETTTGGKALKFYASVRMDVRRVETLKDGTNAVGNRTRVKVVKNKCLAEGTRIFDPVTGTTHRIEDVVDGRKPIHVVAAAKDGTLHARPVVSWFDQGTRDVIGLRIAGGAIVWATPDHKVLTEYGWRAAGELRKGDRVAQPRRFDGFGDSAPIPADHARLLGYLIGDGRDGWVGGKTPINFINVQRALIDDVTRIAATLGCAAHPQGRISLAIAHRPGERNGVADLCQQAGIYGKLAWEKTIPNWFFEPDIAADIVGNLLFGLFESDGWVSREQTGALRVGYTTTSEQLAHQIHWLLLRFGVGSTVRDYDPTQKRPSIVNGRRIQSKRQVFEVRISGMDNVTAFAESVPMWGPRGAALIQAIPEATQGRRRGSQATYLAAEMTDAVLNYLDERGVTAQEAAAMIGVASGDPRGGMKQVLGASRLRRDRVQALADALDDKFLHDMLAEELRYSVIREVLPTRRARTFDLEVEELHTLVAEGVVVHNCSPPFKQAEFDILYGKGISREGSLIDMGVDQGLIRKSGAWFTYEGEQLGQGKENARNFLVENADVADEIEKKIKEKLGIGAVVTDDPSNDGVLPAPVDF

[3] = test system: Streptococcus sp. 'group A'; assay: Streptococcus pyogenes SK(-)GAS viability under kanamycin – luminescence, BacTiterGlo, confirmation, counter-screen for streptokinase expression inhibitor project, dose response (AID 1900); assay type: functional, organism-based
[4] = viability of uninfected HEp-2 cells – cell-based, HTS, cytotoxicity control for RSV inhibitor project, dose response (AID 2410); assay type: functional; conditions: human respiratory syncytial virus
Streptokinase A = target: T4, Streptokinase A (Streptococcus pyogenes serotype M1, UniProt P10520); assay: viability-normalized secreted streptokinase activity reduction – plasminogen activation absorbance, OD405, dose response (AID 1914); assay type: functional, Streptococcus pyogenes M1 GAS;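 note: secreted streptokinase activity via plasminogen activation per viability signal from cell pellet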
T4 sequence (P10520 whole entry): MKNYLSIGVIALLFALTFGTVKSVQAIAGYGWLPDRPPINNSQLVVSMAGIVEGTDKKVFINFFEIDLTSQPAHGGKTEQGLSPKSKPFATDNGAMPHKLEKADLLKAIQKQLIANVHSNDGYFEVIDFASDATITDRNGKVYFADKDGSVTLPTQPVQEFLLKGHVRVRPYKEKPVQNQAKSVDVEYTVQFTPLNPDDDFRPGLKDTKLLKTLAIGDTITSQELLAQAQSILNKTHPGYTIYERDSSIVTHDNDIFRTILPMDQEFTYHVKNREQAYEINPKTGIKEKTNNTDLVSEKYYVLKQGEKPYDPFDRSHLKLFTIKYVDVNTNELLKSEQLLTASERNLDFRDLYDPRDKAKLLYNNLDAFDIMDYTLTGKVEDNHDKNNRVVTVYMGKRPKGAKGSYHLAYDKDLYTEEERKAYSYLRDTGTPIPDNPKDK

Streptococcus = assay: GAS UMAA2166 growth inhibition – luminescence, BacTiterGlo, counter-screen for streptokinase expression inhibitor project, dose response (AID 1915); assay type: functional, organism-based;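 note: potency for reduction of bacterial viability or growth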
Cytochrome P450 2C19 = Cytochrome P450 2C19 (Homo sapiens, UniProt P33261); assay: Cytochrome panel assay with activity outcomes. Panel member name: p450-cyp2c19 Compounds with AC50 equal or less than 10 uM are considered active; assay type: functional; conditions: read-out: AC50
Cytochrome P450 2C19, sequence (P33261 whole entry): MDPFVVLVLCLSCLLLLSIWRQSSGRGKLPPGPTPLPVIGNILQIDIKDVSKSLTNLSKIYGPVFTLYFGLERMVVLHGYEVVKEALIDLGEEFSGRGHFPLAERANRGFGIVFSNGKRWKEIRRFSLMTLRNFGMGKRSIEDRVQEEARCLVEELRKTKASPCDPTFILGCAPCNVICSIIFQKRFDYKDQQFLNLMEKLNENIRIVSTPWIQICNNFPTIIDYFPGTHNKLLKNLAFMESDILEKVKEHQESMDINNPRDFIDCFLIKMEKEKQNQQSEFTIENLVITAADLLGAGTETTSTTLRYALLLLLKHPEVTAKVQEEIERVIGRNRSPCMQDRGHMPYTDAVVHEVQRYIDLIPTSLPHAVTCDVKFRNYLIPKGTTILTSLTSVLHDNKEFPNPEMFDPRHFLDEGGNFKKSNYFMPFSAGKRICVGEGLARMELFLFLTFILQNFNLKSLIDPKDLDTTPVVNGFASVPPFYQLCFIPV

Cytochrome P450 3A4, sequence (P08684 whole entry): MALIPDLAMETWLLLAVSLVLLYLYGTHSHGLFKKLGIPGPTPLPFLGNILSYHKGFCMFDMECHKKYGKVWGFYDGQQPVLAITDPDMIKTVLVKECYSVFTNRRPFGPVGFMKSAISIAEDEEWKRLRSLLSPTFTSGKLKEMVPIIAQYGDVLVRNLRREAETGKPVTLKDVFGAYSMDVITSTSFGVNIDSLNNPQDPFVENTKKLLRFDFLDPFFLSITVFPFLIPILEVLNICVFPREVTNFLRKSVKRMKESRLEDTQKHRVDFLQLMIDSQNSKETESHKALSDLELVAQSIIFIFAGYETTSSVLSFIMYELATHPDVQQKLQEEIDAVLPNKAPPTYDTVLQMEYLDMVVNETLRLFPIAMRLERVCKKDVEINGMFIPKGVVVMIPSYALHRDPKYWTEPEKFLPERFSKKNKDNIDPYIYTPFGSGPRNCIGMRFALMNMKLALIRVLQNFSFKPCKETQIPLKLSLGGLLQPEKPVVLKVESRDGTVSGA
Cytochrome P450 2D6, sequence (P10635 whole entry): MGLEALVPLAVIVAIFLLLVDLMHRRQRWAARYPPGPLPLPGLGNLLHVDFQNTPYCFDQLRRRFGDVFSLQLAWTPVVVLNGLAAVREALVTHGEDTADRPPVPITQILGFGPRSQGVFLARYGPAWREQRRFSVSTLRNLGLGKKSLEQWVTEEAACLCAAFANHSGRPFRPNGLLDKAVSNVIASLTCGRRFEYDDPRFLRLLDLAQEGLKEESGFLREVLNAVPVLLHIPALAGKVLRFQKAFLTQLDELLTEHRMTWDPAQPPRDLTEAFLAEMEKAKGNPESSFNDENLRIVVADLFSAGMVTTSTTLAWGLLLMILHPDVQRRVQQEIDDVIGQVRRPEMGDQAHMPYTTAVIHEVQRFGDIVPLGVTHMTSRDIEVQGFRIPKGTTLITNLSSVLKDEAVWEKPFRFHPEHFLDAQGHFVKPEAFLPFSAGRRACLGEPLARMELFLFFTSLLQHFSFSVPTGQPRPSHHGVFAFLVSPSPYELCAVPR

## CCc1ccccc1N=C(S)NC1CC2CCC(C1)N2Cc1ccco1 (stereo unspecified)
Cytochrome P450 3A4
  AC50: 20 µM (inconclusive)
Cytochrome P450 2D6
  AC50: 14.1 µM (inconclusive)

## CCc1ccccc1NC(=O)COc1ccc2c(=O)c(Oc3cc(C)ccc3C)coc2c1
[1]
  EC50: > 260 µM (inactive)

## O=C(O)c1c(Br)c(Br)c(Br)c(Br)c1C1c2ccc(O)cc2Oc2cc(O)ccc21
Cytochrome P450 3A4
  AC50: 3.98 µM (inconclusive)
Cytochrome P450 2C9
  AC50: 7.94 µM (inconclusive)

## CSc1nc(Sc2cccc(Cl)c2)c2ccccc2n1
Cytochrome P450 3A4
  AC50: 35.5 µM (inconclusive)

## COc1ccc(C2CC3=Nc4ncnn4C(c4ccccc4)C3=C(O)C2)cc1 (stereo unspecified)
[1]
  EC50: > 260 µM (inactive)

## CC1(C)CC(=O)C/C(=N/NC(=O)CCCOc2ccc(Cl)cc2Cl)C1
[1]
  EC50: > 260 µM (inactive)

## CN1CCN(c2ccnc(-c3ccoc3)n2)CC1
Cytochrome P450 2D6
  AC50: 39.8 µM (inconclusive)

## CC(C)Cn1c(C(C)C)nc([N+](=O)[O-])c1S(=O)(=O)c1ccc(F)cc1
[2]
  AC50: 13.9 µM (active)
Protein RecA
  EC50: 9.69 µM (active)

## Cc1ccc(-c2nc3ncccn3c2Nc2ccccc2C)o1
[1]
  EC50: > 260 µM (inactive)

## Cn1cccc1C(=O)N1CCC2(CCCN(Cc3ccccc3)C2)CC1
Cytochrome P450 3A4
  AC50: 31.6 µM (inconclusive)

## COc1ccccc1N1CCN(C(=O)c2ccc3c(=O)n(Cc4ccco4)c(=S)[nH]c3c2)CC1
[1]
  EC50: > 260 µM (inactive)

## CN(C)Cc1cc(C(F)(F)F)ccc1C(O)(c1ccccc1)c1ccccc1
Cytochrome P450 2D6
  AC50: 3.16 µM (inconclusive)

## Cc1cccc(CN(C(S)=Nc2c(C)cccc2C)c2cccnc2)c1
[1]
  EC50: > 260 µM (inactive)

## COC(=O)c1ccc(C(NC(=O)c2ccccc2)[C@]2(C)C[C@H]2C2CCCCC2)cc1 (stereo partly specified)
Cytochrome P450 3A4
  AC50: 6.31 µM (inconclusive)

## N#C/C(=C(/O)CN1CCN(c2ccccc2F)CC1)c1nc(-c2ccccc2)cs1
[3]
  EC50: 11.7 µM (active)
[4]
  CC50: 5 µM (active)
Streptokinase A
  EC50: > 150 µM (not active)
Streptococcus
  EC50: 86.1 µM (active)

## N#Cc1cccc(-c2cncnc2-n2ccnc2)c1
Cytochrome P450 2C19
  AC50: 39.8 µM (inconclusive)
Cytochrome P450 2D6
  AC50: 39.8 µM (inconclusive)

## CC1=C(Nc2c(C)cc(O)cc2O)C(=O)C=c2oc3c(c21)C(C)=C(Nc1c(C)cc(O)cc1O)C(=O)C=3
Cytochrome P450 2D6
  AC50: 2.51 µM (inconclusive)

## CC1=NN(c2ccccc2)C(=O)/C1=C/c1cn(C)c2ccccc12
[2]
  AC50: 57.1 µM (active)
Protein RecA
  EC50: 39 µM (active)

## Cc1ccc(S(=O)(=O)n2cnc3ccccc32)cc1[N+](=O)[O-]
[1]
  EC50: > 260 µM (inactive)

## COCCCNCCOc1ccc(C)cc1[N+](=O)[O-]
[1]
  EC50: > 260 µM (inactive)

## COc1ccc(C)cc1NC(=O)C/C(C)=N/NC(=O)Cc1cccc2ccccc12
[1]
  EC50: > 260 µM (inactive)

## CCOc1ccc(Cl)cc1C(c1c(C)n[nH]c1O)c1c(C)n[nH]c1O
[2]
  AC50: 0.551 µM (active)
Protein RecA
  EC50: 0.221 µM (active)

## O=C(c1ccc(Cl)c(Cl)c1)c1cc(-c2ccccn2)c(N2CCOCC2)s1
Cytochrome P450 2D6
  AC50: 10 µM (inconclusive)

## Cn1c(-c2sc(=S)n(-c3ccccc3)c2N)nc2ccccc21
Cytochrome P450 2D6
  AC50: 1.26 µM (inconclusive)

## O=C(N/N=C/c1c[nH]c2ccc(Br)cc12)c1ccn(Cc2ccc(Cl)cc2)n1
Cytochrome P450 3A4
  AC50: 3.98 µM (inconclusive)
Cytochrome P450 2C9
  AC50: 39.8 µM (inconclusive)

## CC(=O)c1ccc(NC(=O)CCCN2C(=O)/C(=C/C(C)=C/c3ccccc3)SC2=S)cc1
[1]
  EC50: 106 µM (active)

## COc1cccc(-c2ccc3ncnc(N4CCN(C)CC4)c3c2)c1
Cytochrome P450 2C19
  AC50: 31.6 µM (inconclusive)
Cytochrome P450 2D6
  AC50: 39.8 µM (inconclusive)

## COc1cc2c(cc1NC(=O)COC(=O)[C@@H](NS(=O)(=O)c1ccccc1)C(C)C)oc1ccccc12
[1]
  EC50: > 260 µM (inactive)

## CN(C)CC(C)(C)CN1c2ccccc2Sc2ccccc21
Cytochrome P450 3A4
  AC50: 5.01 µM (inconclusive)
Cytochrome P450 2C19
  AC50: 2 µM (inconclusive)

## CCOC(=O)C1=C(CN2CCc3ccccc32)NC(=O)NC1c1ccc(Cl)cc1 (stereo unspecified)
[1]
  EC50: > 260 µM (inactive)

## O=C(/C=C/c1ccccc1)c1ccc2c3c(cccc13)CC2
[2]
  AC50: > 380 µM (inactive)
Protein RecA
  EC50: 11.4 µM (active)

## Cc1ccc(S(=O)(=O)N[C@@H](CCc2ccccc2)CC(=O)C(C)(C)C)cc1
Cytochrome P450 2D6
  AC50: 3.16 µM (inconclusive)

## Cc1n[nH]c(C)c1CCCOc1ccccc1
[3]
  EC50: > 150 µM (not active)
Streptokinase A
  EC50: > 150 µM (not active)
Streptococcus
  EC50: > 150 µM (not active)

## CCC/C=C(\CCC)C(NC(=O)c1ccc(C(F)(F)F)cc1)c1ccc(C(F)(F)F)cc1 (stereo unspecified)
Cytochrome P450 3A4
  AC50: 10 µM (inconclusive)

## CC(=O)O[C@]12CC[N@+]3(C)CCCC[C@@H]3[C-]1Nc1ccccc12
Cytochrome P450 2D6
  AC50: 3.16 µM (inconclusive)

## CC1=C(C)/C(=N\OC(=O)/C=C/c2ccccc2)C=CC1=O
[2]
  AC50: > 380 µM (inactive)
Protein RecA
  EC50: 0.532 µM (active)

## Clc1ccc(-c2nc(/C=N/N3CCOCC3)c3ccccn23)cc1
[1]
  EC50: > 260 µM (inactive)

## CCNc1ncc2ncc(=O)n(Cc3cccs3)c2n1
Cytochrome P450 3A4
  AC50: 20 µM (inconclusive)
Cytochrome P450 2C9
  AC50: 15.8 µM (inconclusive)
Cytochrome P450 2C19
  AC50: 20 µM (inconclusive)
